From patent US12642797B2, “Coated granule, solid dispersion, and preparation containing vortioxetine hydrobromide for oral taste masking” (Seasons Biotechnology (Taizhou) Co., Ltd., priority 2019, dated 2026)
Counter-ions that a name gives are not always drawn.

What was measured:
[1] = test system: oral cavity and tongue; assay: Taste and irritation test by subjects (self-made sample vs reference sample); assay type: in vivo, human
Method: In the examples, the taste masking effects of test samples were evaluated by the subject's perception of the bitterness and irritation of the oral cavity and tongue. The Taste and Irritation Classification Tested by the Subjects: [table]

[2] = test system: tongue; assay: Comparative Example 2: comparison of taste of solid dispersion, hemihydrobromide powder and marketed drug product (20 subjects); assay type: in vivo, human; details: equivalent to 10 mg vortioxetine
Method: The solid dispersion equivalent to 10 mg vortioxetine prepared in Example 9b, vortioxetine hemihydrobromide powder equivalent to 10 mg vortioxetine, and the powder compressed by vortioxetine hydrobromide marketed drug product equivalent to 10 mg of vortioxetine hydrobromide passed through 100 mesh sieve, then they were put directly in front of the upper part of the tongue for one minute. There were 20 subjects in each powder group. After trying one powder taste, rinsed your mouth, and try another powder after there was no irritation. After trying the taste, record the bitterness level and tongue irritation, spit it out a few seconds later, rinse your mouth, record the time for the irritation to subside, eat 1-1.5 hours later, and record the irritation again.

[3] = Solubility in sodium acetate medium pH 6.8 simulating the oral environment (USP method); assay type: physicochemical; details: sodium acetate medium, pH 6.8, aqueous buffer, sodium acetate medium pH 6.8, USP method; read-out: Solubility
[4] = average of 5 subjects, powder equivalent to 20 mg of vortioxetine

## Br.Cc1ccc(Sc2ccccc2N2CCNCC2)c(C)c1 [Reference sample (1b), vortioxetine hydrobromide form α]
[1]; Subject 1, 0-1 minute, powder equivalent to 20 mg of vortioxetine tasted
  Instantaneous irritation: +++ (+ + + Strong irritation, intolerable)
[1]; Subject 1, powder equivalent to 20 mg of vortioxetine tasted
  Delayed irritation: >30 min
[1]; Subject 2, 0-1 minute, powder equivalent to 20 mg of vortioxetine tasted
  Instantaneous irritation: +++ (+ + + Strong irritation, intolerable)
[1]; Subject 2, powder equivalent to 20 mg of vortioxetine tasted
  Delayed irritation: >30 min
[1]; Subject 3, 0-1 minute, powder equivalent to 20 mg of vortioxetine tasted
  Instantaneous irritation: +++ (+ + + Strong irritation, intolerable)
[1]; Subject 3, powder equivalent to 20 mg of vortioxetine tasted
  Delayed irritation: >30 min
[1]; Subject 4, 0-1 minute, powder equivalent to 20 mg of vortioxetine tasted
  Instantaneous irritation: +++ (+ + + Strong irritation, intolerable)
[1]; Subject 4, powder equivalent to 20 mg of vortioxetine tasted
  Delayed irritation: >30 min
[1]; Subject 5, 0-1 minute, powder equivalent to 20 mg of vortioxetine tasted
  Instantaneous irritation: +++ (+ + + Strong irritation, intolerable)
[1]; Subject 5, powder equivalent to 20 mg of vortioxetine tasted
  Delayed irritation: >30 min
[1]; [4]
  Delayed irritation, time to disappear: more than 30 minutes
  Instantaneous irritation: +++ (+ + + Strong irritation, intolerable)

## Br.Cc1ccc(Sc2ccccc2N2CCNCC2)c(C)c1.Cc1ccc(Sc2ccccc2N2CCNCC2)c(C)c1 [Vortioxetine hemihydrobromide powder]
[2]
  Number of subjects experiencing different irritation: Basically no irritation: 6
[2]; no irritation after gargling
  Number of subjects experiencing different irritation: Slightly irritating, tolerable: 12^(2)
[2]; subside time more than 2 hours, not subsided after eating
  Number of subjects experiencing different irritation: unbearable: 2^(1)

## Br.Cc1ccc(Sc2ccccc2N2CCNCC2)c(C)c1.Cc1ccc(Sc2ccccc2N2CCNCC2)c(C)c1 [vortioxetine hemihydrobromide]
[1]; [4]
  Delayed irritation, time to disappear: more than 30 minutes
  Instantaneous irritation: ++ (+ + Irritating, tolerable)

## Cc1ccc(Sc2ccccc2N2CCNCC2)c(C)c1 [vortioxetine hydrobromide, 1-[2-(2,4-dimethyl-phenylsulfanyl)-phenyl]piperazine hydrobromide]
[1]; Subject 1, 0-1 minute, powder equivalent to 20 mg of vortioxetine tasted, listed as Reference sample (2b), hydrobromide
  Instantaneous irritation: +++ (+ + + Strong irritation, intolerable)
[1]; Subject 1, powder equivalent to 20 mg of vortioxetine tasted, listed as Reference sample (2b), hydrobromide
  Delayed irritation: >30 min
[1]; Subject 1, powder equivalent to 20 mg of vortioxetine tasted, listed as Reference sample (4b), hydrobromide
  Delayed irritation: >30 min
[1]; Subject 1, powder equivalent to 20 mg of vortioxetine tasted, listed as Reference sample (4c), hydrobromide
  Delayed irritation: >30 min
[1]; Subject 1, powder equivalent to 20 mg of vortioxetine tasted, listed as Reference sample (7b), hydrobromide
  Delayed irritation: >30 min
[1]; Subject 2, 0-1 minute, powder equivalent to 20 mg of vortioxetine tasted, listed as Reference sample (2b), hydrobromide
  Instantaneous irritation: ++ (+ + Irritating, tolerable)
[1]; Subject 2, powder equivalent to 20 mg of vortioxetine tasted, listed as Reference sample (2b), hydrobromide
  Delayed irritation: >30 min
[1]; Subject 2, powder equivalent to 20 mg of vortioxetine tasted, listed as Reference sample (4b), hydrobromide
  Delayed irritation: >30 min
[1]; Subject 2, powder equivalent to 20 mg of vortioxetine tasted, listed as Reference sample (4c), hydrobromide
  Delayed irritation: >30 min
[1]; Subject 2, powder equivalent to 20 mg of vortioxetine tasted, listed as Reference sample (7b), hydrobromide
  Delayed irritation: >30 min
[1]; Subject 3, 0-1 minute, powder equivalent to 20 mg of vortioxetine tasted, listed as Reference sample (2b), hydrobromide
  Instantaneous irritation: +++ (+ + + Strong irritation, intolerable)
[1]; Subject 3, powder equivalent to 20 mg of vortioxetine tasted, listed as Reference sample (2b), hydrobromide
  Delayed irritation: >30 min
[1]; Subject 3, powder equivalent to 20 mg of vortioxetine tasted, listed as Reference sample (4b), hydrobromide
  Delayed irritation: >30 min
[1]; Subject 3, powder equivalent to 20 mg of vortioxetine tasted, listed as Reference sample (4c), hydrobromide
  Delayed irritation: >30 min
[1]; Subject 3, powder equivalent to 20 mg of vortioxetine tasted, listed as Reference sample (7b), hydrobromide
  Delayed irritation: >30 min
[1]; Subject 4, 0-1 minute, powder equivalent to 20 mg of vortioxetine tasted, listed as Reference sample (2b), hydrobromide
  Instantaneous irritation: ++ (+ + Irritating, tolerable)
[1]; Subject 4, 0-1 minute, powder equivalent to 20 mg of vortioxetine tasted, listed as Reference sample (4b), hydrobromide
  Instantaneous irritation: +++ (+ + + Strong irritation, intolerable)
[1]; Subject 4, powder equivalent to 20 mg of vortioxetine tasted, listed as Reference sample (2b), hydrobromide
  Delayed irritation: >30 min
[1]; Subject 4, powder equivalent to 20 mg of vortioxetine tasted, listed as Reference sample (4b), hydrobromide
  Delayed irritation: >30 min
[1]; Subject 4, powder equivalent to 20 mg of vortioxetine tasted, listed as Reference sample (4c), hydrobromide
  Delayed irritation: >30 min
[1]; Subject 4, powder equivalent to 20 mg of vortioxetine tasted, listed as Reference sample (7b), hydrobromide
  Delayed irritation: >30 min
[1]; Subject 5, 0-1 minute, powder equivalent to 20 mg of vortioxetine tasted, listed as Reference sample (2b), hydrobromide
  Instantaneous irritation: +++ (+ + + Strong irritation, intolerable)
[1]; Subject 5, 0-1 minute, powder equivalent to 20 mg of vortioxetine tasted, listed as Reference sample (4b), hydrobromide
  Instantaneous irritation: +++ (+ + + Strong irritation, intolerable)
[1]; Subject 5, powder equivalent to 20 mg of vortioxetine tasted, listed as Reference sample (2b), hydrobromide
  Delayed irritation: >30 min
[1]; Subject 5, powder equivalent to 20 mg of vortioxetine tasted, listed as Reference sample (4b), hydrobromide
  Delayed irritation: >30 min
[1]; Subject 5, powder equivalent to 20 mg of vortioxetine tasted, listed as Reference sample (4c), hydrobromide
  Delayed irritation: >30 min
[1]; Subject 5, powder equivalent to 20 mg of vortioxetine tasted, listed as Reference sample (7b), hydrobromide
  Delayed irritation: >30 min
[1]; average of 5 subjects, powder equivalent to 20 mg of vortioxetine, listed as Reference sample (2b), hydrobromide
  Instantaneous irritation: +++ (+ + + Strong irritation, intolerable)
[1]; average of 5 subjects, powder equivalent to 20 mg of vortioxetine, listed as Reference sample (4b), hydrobromide
  Instantaneous irritation: +++ (+ + + Strong irritation, intolerable)
[1]; average of 5 subjects, powder equivalent to 20 mg of vortioxetine, listed as Reference sample (4c), hydrobromide
  Instantaneous irritation: +++ (+ + + Strong irritation, intolerable)
[1]; average of 5 subjects, powder equivalent to 20 mg of vortioxetine, listed as Reference sample (7b), hydrobromide
  Instantaneous irritation: +++ (+ + + Strong irritation, intolerable)
[1]; average of 5 subjects, powder equivalent to 20 mg of vortioxetine, listed as Reference sample (9b), hydrobromide
  Instantaneous irritation: +++ (+ + + Strong irritation, intolerable)
[1]; average of 5 subjects, powder equivalent to 20 mg of vortioxetine, listed as Reference sample (10), hydrobromide
  Instantaneous irritation: ++ (+ + Irritating, tolerable)
[1]; average of 5 subjects, powder equivalent to 20 mg of vortioxetine, listed as Reference sample (11b), hydrobromide
  Instantaneous irritation: +++ (+ + + Strong irritation, intolerable)
[1]; average of 5 subjects, powder equivalent to 20 mg of vortioxetine, listed as Reference sample (11c), hydrobromide
  Instantaneous irritation: +++ (+ + + Strong irritation, intolerable)
[1]; average of 5 subjects, powder equivalent to 20 mg of vortioxetine, listed as Reference sample (14b), hydrobromide
  Instantaneous irritation: +++ (+ + + Strong irritation, intolerable)
[3]
  solubility: 150 µg/mL
